Assay results taken from patent publication US8148373B2, “Compounds” (AstraZeneca AB, priority 2008, dated 2012).

Tests used:
[1] = target: T1, Adrenergic β2 (H292 cells) (Homo sapiens, UniProt P07550); assay: Adrenergic β2 Mediated cAMP Production, single concentration 1 μM; assay type: cell-based; settings: NCI-H292, 1 μM compound, percentage of the maximum response generated by 1E-07M formoterol, read-out: β2 (% effect at 1 μM)
T1 construct: endogenous in cells; host or cells: H292 cells
In short: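 cAMP was quantified by AlphaScreen in lysates of H292 cells and reported as a percentage of the 1E-07M formoterol maximum. Before lysis the cells, seeded the previous day, received rolipram (300 μM final) and then test compound at a final 1 μM in 1% DMSO for 60 min at room temperature.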

[2] = target: T2, human muscarinic acetylcholine M3 receptor (M3-ACh) (Homo sapiens, UniProt P20309); assay: Muscarinic 3 Receptor Binding Assay, % inhibition specific binding at 1 μM; settings: 1 μM compound, % inhibition specific [3H]-NMS binding
T2 construct: expressed in transfected cells; host or cells: CHO-K1 (Chinese Hamster Ovary) cell membranes
T2 sequence (P20309 whole entry): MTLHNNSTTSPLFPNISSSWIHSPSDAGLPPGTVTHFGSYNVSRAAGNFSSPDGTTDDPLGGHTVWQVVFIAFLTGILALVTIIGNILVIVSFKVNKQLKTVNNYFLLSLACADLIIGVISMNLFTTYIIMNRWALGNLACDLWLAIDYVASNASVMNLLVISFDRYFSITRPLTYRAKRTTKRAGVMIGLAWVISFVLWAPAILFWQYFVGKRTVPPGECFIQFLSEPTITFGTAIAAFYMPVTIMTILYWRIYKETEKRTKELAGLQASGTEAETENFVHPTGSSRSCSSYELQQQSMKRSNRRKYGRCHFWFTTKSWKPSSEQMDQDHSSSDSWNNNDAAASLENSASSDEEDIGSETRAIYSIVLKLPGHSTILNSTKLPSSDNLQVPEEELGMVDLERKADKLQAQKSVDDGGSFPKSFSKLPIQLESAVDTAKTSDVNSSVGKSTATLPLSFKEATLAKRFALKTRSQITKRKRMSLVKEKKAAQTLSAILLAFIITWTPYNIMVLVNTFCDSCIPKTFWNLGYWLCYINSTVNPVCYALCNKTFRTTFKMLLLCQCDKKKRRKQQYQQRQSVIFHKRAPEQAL
In short: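 Value is % inhibition of specific [3H]N-methyl scopolamine binding (0.1 nM, quarter Kd) by 1 μM compound, using SPA beads precoated with human M3-expressing CHO-K1 membranes. Buffer HEPES pH 7.4 with MgCl2 and 1% DMSO; 16 h at room temperature; 1 μM atropine sets non-specific binding.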

[3] = target: T2, human muscarinic acetylcholine M3 receptor (M3-ACh); assay: Muscarinic 3 Receptor Binding Assay ([3H]NMS competition, SPA); settings: [3H]NMS 0.1 nM, CHO-K1 cell membranes, 16 hours at room temperature; read-out: M3 pIC50 (converted)
In short: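 Competition SPA binding of 0.1 nM [3H]NMS (quarter Kd) to membranes from CHO-K1 cells expressing human M3, in 20 mM HEPES pH 7.4, 5 mM MgCl2, 1% DMSO. Incubated 16 h at room temperature; non-specific binding with 1 µM atropine. pIC50 from 50% reduction of specific binding.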

[4] = target: T1, Adrenergic β2 (H292 cells); assay: Assay for Adrenergic β2 Mediated cAMP Production (concentration response, AlphaScreen cAMP detection); assay type: cell-based; settings: for EC50: cAMP production, 60 minutes at room temperature, 300 μM rolipram, read-out: β2 pEC50 (converted); for β2 Intrinsic activity: fraction relative to the maximum activity determined for formoterol
In short: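 Intrinsic activity is relative to the per-experiment formoterol maximum, with pEC50 from a four-parameter logistic fit of cAMP levels quantified by AlphaScreen against standards. Cells (H292) got 300 μM rolipram for 10 min, then compound for 60 min at room temperature, 1% DMSO final.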

T1 sequence (P07550 whole entry): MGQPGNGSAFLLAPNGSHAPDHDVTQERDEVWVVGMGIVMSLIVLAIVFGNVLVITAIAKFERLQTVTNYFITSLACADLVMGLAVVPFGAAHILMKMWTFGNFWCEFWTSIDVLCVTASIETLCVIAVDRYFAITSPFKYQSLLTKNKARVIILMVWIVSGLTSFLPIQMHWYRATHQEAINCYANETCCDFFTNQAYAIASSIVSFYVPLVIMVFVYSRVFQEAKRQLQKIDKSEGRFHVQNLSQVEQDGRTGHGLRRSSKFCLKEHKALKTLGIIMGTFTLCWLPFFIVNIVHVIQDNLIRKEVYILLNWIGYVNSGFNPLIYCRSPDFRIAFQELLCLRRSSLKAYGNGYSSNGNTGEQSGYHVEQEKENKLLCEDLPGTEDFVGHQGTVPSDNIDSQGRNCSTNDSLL

| activation at 1 µM [1] [%] | inhibition at 1 µM [2] [%] | IC50 [3] [nM] | EC50 [4] [nM] | β2 Intrinsic activity [4] | SMILES |
| --- | --- | --- | --- | --- | --- |
| 113 | 92 | 25.1 | 7.94 | 0.9 | O=C(c1ccc2c(c1)CCO2)N1CCOC2(CCN(Cc3cc(F)cc(CCNC[C@H](O)c4ccc(O)c5[nH]c(=O)sc45)c3)CC2)C1 [Example 149, (R)-7-(2-(3-((4-(2,3-dihydrobenzofuran-5-carbonyl)-1-oxa-4,9-diazaspiro[5.5]undecan-9-yl)methyl)-5-fluorophenethylamino)-1-hydroxyethyl)-4-hydroxybenzo[d]thiazol-2(3H)-one] |
| 94 | 89 | 31.6 | 5.01 | 0.8 | O=C(c1ccc2cccnc2c1)N1CCOC2(CCN(Cc3cc(F)cc(CCNC[C@H](O)c4ccc(O)c5[nH]c(=O)sc45)c3)CC2)C1 [Example 178, (R)-7-(2-(3-fluoro-5-((4-(quinoline-7-carbonyl)-1-oxa-4,9-diazaspiro[5.5]undecan-9-yl)methyl)phenethylamino)-1-hydroxyethyl)-4-hydroxybenzo[d]thiazol-2(3H)-one] |
| 95 | 100 | 0.398 | 25.1 | 0.9 | O=C(c1csc(C2CC2)n1)N1CCOC2(CCN(CCCCCCCCCNC[C@H](O)c3ccc(O)c4[nH]c(=O)sc34)CC2)C1 [Example 218, (R)-7-(2-(9-(4-(2-cyclopropylthiazole-4-carbonyl)-1-oxa-4,9-diazaspiro[5.5]undecan-9-yl)nonylamino)-1-hydroxyethyl)-4-hydroxybenzo[d]thiazol-2(3H)-one] |
| 98 | 99 | 7.94 | 20 | 0.9 | Cc1cc(C(=O)N2CCOC3(CCN(CCCCCCCCCNC[C@H](O)c4ccc(O)c5[nH]c(=O)sc45)CC3)C2)c(C)s1 [Example 202, (R)-7-(2-(9-(4-(2,5-dimethylthiophene-3-carbonyl)-1-oxa-4,9-diazaspiro[5.5]undecan-9-yl)nonylamino)-1-hydroxyethyl)-4-hydroxybenzo[d]thiazol-2(3H)-one] |
| 101 | 95 | 20 | 6.31 | 1 | Cc1ccc(C(=O)N2CCOC3(CCN(Cc4cc(F)cc(CCNC[C@H](O)c5ccc(O)c6[nH]c(=O)sc56)c4)CC3)C2)s1 [Example 118, (R)-7-(2-(3-fluoro-5-((4-(5-methylthiophene-2-carbonyl)-1-oxa-4,9-diazaspiro[5.5]undecan-9-yl)methyl)phenethylamino)-1-hydroxyethyl)-4-hydroxybenzo[d]thiazol-2(3H)-one] |
| 100 | 97 | 12.6 | 3.98 | 0.9 | O=C(c1ccc(Cl)s1)N1CCOC2(CCN(Cc3cc(F)cc(CCNC[C@H](O)c4ccc(O)c5[nH]c(=O)sc45)c3)CC2)C1 [Example 124, (R)-7-(2-(3-((4-(5-chlorothiophene-2-carbonyl)-1-oxa-4,9-diazaspiro[5.5]undecan-9-yl)methyl)-5-fluorophenethylamino)-1-hydroxyethyl)-4-hydroxybenzo[d]thiazol-2(3H)-one] |
| 82 | 99 | 3.16 | 12.6 | 0.8 | Cc1ccc(C(=O)N2CCOC3(CCN(CCCCCCCCCNC[C@H](O)c4ccc(O)c5[nH]c(=O)sc45)CC3)C2)o1 [Example 198, (R)-4-hydroxy-7-(1-hydroxy-2-(9-(4-(5-methylfuran-2-carbonyl)-1-oxa-4,9-diazaspiro[5.5]undecan-9-yl)nonylamino)ethyl)benzo[d]thiazol-2(3H)-one] |
| 103 | 100 | 0.631 | 39.8 | 0.9 | O=C(c1csc(C(F)(F)F)n1)N1CCOC2(CCN(CCCCCCCCCNC[C@H](O)c3ccc(O)c4[nH]c(=O)sc34)CC2)C1 [Example 217, (R)-4-hydroxy-7-(1-hydroxy-2-(9-(4-(2-(trifluoromethyl)thiazole-4-carbonyl)-1-oxa-4,9-diazaspiro[5.5]undecan-9-yl)nonylamino)ethyl)benzo[d]thiazol-2(3H)-one] |
| 84 | 99 | 2 | 25.1 | 0.9 | O=C(c1ccc2occc2c1)N1CCOC2(CCN(CCCCCCCCCNC[C@H](O)c3ccc(O)c4[nH]c(=O)sc34)CC2)C1 [Example 209, (R)-7-(2-(9-(4-(benzofuran-5-carbonyl)-1-oxa-4,9-diazaspiro[5.5]undecan-9-yl)nonylamino)-1-hydroxyethyl)-4-hydroxybenzo[d]thiazol-2(3H)-one] |
| 92 | 95 | 7.94 | 15.8 | 0.8 | Cc1nc(CC(=O)N2CCOC3(CCN(CCCCCCCCCNC[C@H](O)c4ccc(O)c5[nH]c(=O)sc45)CC3)C2)cs1 [Example 210, (R)-4-hydroxy-7-(1-hydroxy-2-(9-(4-(2-(2-methylthiazol-4-yl)acetyl)-1-oxa-4,9-diazaspiro[5.5]undecan-9-yl)nonylamino)ethyl)benzo[d]thiazol-2(3H)-one] |
| 77 | 99 | 2 | 12.6 | 0.9 | O=C(c1ccc(Cl)s1)N1CCOC2(CCN(CCCCCCCCCNC[C@H](O)c3ccc(O)c4[nH]c(=O)sc34)CC2)C1 [Example 190, (R)-7-(2-(9-(4-(5-chlorothiophene-2-carbonyl)-1-oxa-4,9-diazaspiro[5.5]undecan-9-yl)nonylamino)-1-hydroxyethyl)-4-hydroxybenzo[d]thiazol-2(3H)-one] |
| 97 | 52 | – | – | – | Cc1ccsc1C(=O)N1CCOC2(CCN(Cc3cc(F)cc(CCNC[C@H](O)c4ccc(O)c5[nH]c(=O)sc45)c3)CC2)C1 [Example 125, (R)-7-(2-(3-fluoro-5-((4-(3-methylthiophene-2-carbonyl)-1-oxa-4,9-diazaspiro[5.5]undecan-9-yl)methyl)phenethylamino)-1-hydroxyethyl)-4-hydroxybenzo[d]thiazol-2(3H)-one] |
| 91 | 97 | – | – | – | O=C(CCCc1cccs1)N1CCOC2(CCN(CCCCCCCCCNC[C@H](O)c3ccc(O)c4[nH]c(=O)sc34)CC2)C1 [Example 183, (R)-4-hydroxy-7-(1-hydroxy-2-(9-(4-(4-(thiophen-2-yl)butanoyl)-1-oxa-4,9-diazaspiro[5.5]undecan-9-yl)nonylamino)ethyl)benzo[d]thiazol-2(3H)-one] |
| 98 | 19 | – | – | – | O=C(c1cnc2ccccc2c1)N1CCOC2(CCN(Cc3cc(F)cc(CCNC[C@H](O)c4ccc(O)c5[nH]c(=O)sc45)c3)CC2)C1 [Example 172, (R)-7-(2-(3-fluoro-5-((4-(quinoline-3-carbonyl)-1-oxa-4,9-diazaspiro[5.5]undecan-9-yl)methyl)phenethylamino)-1-hydroxyethyl)-4-hydroxybenzo[d]thiazol-2(3H)-one] |
